Source: patent US20240100050A1, “MDM2 INHIBITORS AND USES THEREOF” (PMV Pharmaceuticals, Inc., priority 2022, published 2024)

Key:
SJSA1 tumors = assay: Intratumoral dosing regimens of navtemadlin in SJSA1 tumors: tumor volume / % tumor inhibition; format: in vivo, human; conditions: for % TGI Day 24: compared to the vehicle
Method: A study was conducted to compare differences between dosing regimens of navtemadlin administered to SJSA1 tumors. S.ISa-1 is a human […] cell line. Navtemadlin is an MDM2 inhibitor compound of the disclosure. […]
(§1) FIG. 2 panels A and B show the effects of intratumoral dosing regimens of navtemadlin in SJSA1 tumors, such as on tumor volume (mm 3) and % body weight change.

[1] = % body weight change in the SJSA1 tumor dosing regimen study; format: in vivo; conditions: SJSA1 tumors
Method: A study was conducted to compare differences between dosing regimens of navtemadlin administered to SJSA1 tumors. S.ISa-1 is a human […] cell line. Navtemadlin is an MDM2 inhibitor compound of the disclosure. Navtemadlin was administered intratumorally as 20 μL of 100 mg/mL navtemadlin Q3D×9, 20 μL of 100 mg/mL navtemadlin Q7D×5, 20 μL of 100 mg/mL navtemadlin Q14D×3, and 20 μL of 25 mg/mL navtemadlin QD×31.
as §1

[2] = intratumorally 20 μL of 25 mg/mL QD×31
[3] = intratumorally 20 μL of 100 mg/mL Q3D×9
[4] = intratumorally 20 μL of 100 mg/mL Q7D×5
[5] = intratumorally 20 μL of 100 mg/mL Q14D×3

SMILES: CC(C)[C@@H](CS(=O)(=O)C(C)C)N1C(=O)[C@@](C)(CC(=O)O)C[C@H](c2cccc(Cl)c2)[C@H]1c1ccc(Cl)cc1 [navtemadlin]
- % TGI Day 24 (SJSA1 tumors; Q3Dx21 IT): 94%
- % TGI Day 24 (SJSA1 tumors; Q7Dx21 IT): 94%
- % TGI Day 24 (SJSA1 tumors; Q14Dx21 IT): 94%
- % TGI Day 24 (SJSA1 tumors; QDx21 PO): 94%
- tumor volume (SJSA1 tumors; [2]): significant tumor volume reduction
- tumor volume (SJSA1 tumors; [3]): significant tumor volume reduction
- tumor volume (SJSA1 tumors; [4]): significant tumor volume reduction
- tumor volume (SJSA1 tumors; [5]): significant tumor volume reduction
- % body weight change [1, 2]: not significantly affecting % body weight change
- % body weight change [1, 3]: not significantly affecting % body weight change
- % body weight change [1, 4]: not significantly affecting % body weight change
- % body weight change [1, 5]: not significantly affecting % body weight change
